Data as given in US8206756B2, “Herbal composition for inflammatory disorders” (Piramal Life Sciences Limited, priority 2005, dated 2012).

Tests used:
[1] = system: THP-1 cell adhesion to HUVECs; test: Adhesion of THP-1 mononuclear cells to HUVEC monolayers; type: cell-based, human; conditions: for Fluorescence Intensity: TNF-α 1 ng/ml; for Fold of control: unstimulated DMSO control = 1, stimulated = 18
Experimental: Adhesion studies were performed with the promonocytic cell line THP-1, which has been established as a useful model for monocytes in adhesion studies in Circ. Res., 97, 236-243, 2005, with modifications. THP-1 cells were washed twice with labeling medium (M200 plus LSGS). THP-1 cells (6×10^5 cells per ml) were labeled with 10 μg/ml bis-carboxyethyl-carboxyfluorescein acetoxymethylester (a fluorescent probe, BCECF-AM; Sigma) for 30 min at RT. After quenching with 0.1% BSA, the pellet was resuspended in labeling medium. To evaluate monocyte adhesion, HUVEC monolayers treated with TNF-α (1 ng/ml) in the presence or absence of various concentrations of test sample. The media was removed, washed and labeled-THP-1-cells were added to the wells (6×10^4 cells per well) and incubated for 10 minutes at RT in the dark. After co incubation, the wells were washed, filled with lysis buffer (0.1% Triton-X in 1.5 M Tris buffer) and incubated for 30 min. The fluorescence was measured using a fluorescent reader (PolarStar Optima, BMG Labtech) at an excitation peak of 485 nm and an emission peak of 520 nm. Values are means±SEM, representing fluorescent adhesion data. BAY 11-7082 [(E)-3-(4-methylphenylsulfonyl)-2-propenenitrile] was used as a standard and DMSO as vehicle control.

[2] = system: atherosclerosis / hyperlipidemia; test: Atherosclerosis model of high fat-fed hyperlipidemic hamsters; type: in vivo, Golden Syrian Hamsters; conditions: Fenofibrate 100 mpk, extract 200 mpk
Experimental: The treatment effects of the extract of example 1 on prevention of aortic lesion were determined by using atherosclerosis model of high fat-fed hyperlipidemic hamster.
Details of animals used: Male Golden Syrian Hamsters, which were 7-8 weeks old and weighed approximately 100 g to 120 g, were used for the experiment. Hamsters were randomly selected for treatment group placement. Animals were earmarked using a paint marker. Animals were separated and housed in groups of three in appropriately sized solid-bottom cages. Room lighting conditions were adjusted to 12 hour light and 12 hour dark cycle. During the acclimation period the diet was Purina 5001 (Research Diets, Inc. New Brunswick, N.J., USA). A high-fat diet consisting of Purina 5001 plus 10% coconut oil, 10% corn oil, 0.5% cholesterol, and 5% fructose was administered beginning on day 1 and continued throughout the duration of study. Hamsters were provided purified tap water throughout the study.
For pretreatment lipid values, animals were bled by retro-orbital puncture following an 18-hour fast and ˜1 ml of blood was collected in a 3 ml Vacutainer® tube containing K3 EDTA. Each blood sample was centrifuged (4000 rpm, 20 min, 4° C. using an Eppendorf C5804R) and the plasma separated and was analyzed for determination of triglyceride (TG), total cholesterol, high density cholesterol (HDL) and low density cholesterol (LDL).
Preparation of dosing solution: The extract of example 1 was dissolved in vehicle [CMC (0.5%)/Tween 80 (2%)] for 200 mpk (5 ml/kg BW) dosing. The resulting solution was a fine suspension after 12-15 minutes gentle sonication. Aliquots were prepared (˜2.3 ml/vial) and stored in a freezer and were used daily.
All groups of animals were dosed orally either with vehicle or with extract of example 1 (200 mpk) for 58 days. […]
On day 58, following the 16-18 hour fasting period, animals were bled by retro-orbital puncture and ˜1 ml of blood was collected in a 3 ml Vacutainer® tube containing K3 EDTA. Each blood sample was centrifuged (4000 rpm, 20 min, 4° C. using an Eppendorf C5804R) and the plasma sample was analyzed for TG, total cholesterol, HDL and LDL.
Necropsy: On day 59, the animals were fasted for 4 h and euthanized under carbon dioxide and plasma samples were collected via cardiac puncture for lipid profiling and other analyses. […] The heart, aortic arch, thoracic and abdominal aorta up to femoral bifurcation were removed and placed in 10% formalin for en face lesion quantification.
En face analysis: Connective fascia and adventia surrounding the thoracic aorta were removed as much as possible. […] Quantitation was performed using a Nikon SMZ-U microscope with an Optronics Camera head recording the photographs. […] Quantitation was done based on percentage lesion per area.

[3] = system: TNF-α; test: LPS-induced TNF-α production in hPBMCs (ELISA); type: cell-based; conditions: Homo sapiens, LPS 1 μg/ml, 5 h, hPBMC
Experimental: (§1) Primary screening—Human peripheral blood mononuclear cells (hPBMCs). TNF-α production by lipopolysaccharides (LPS) in hPBMCs was measured according to the method described by Jansky, L. et al (Physiol. Res. 52: 593-598, (2003)). Blood was collected from healthy donors into Potassium EDTA vacutainer tubes (BD vacutainer). The PBMCs were isolated using gradient centrifugation in Histopaque-1077 solution (Sigma). Isolated PBMCs were suspended in RPMI 1640 culture medium (Gibco BRL, Pasley, UK) containing 10% fetal bovine serum (FBS) (Hyclone, Utah, USA), 100 U/ml penicillin (Sigma Chemical Co. St Louis, Mo.) and 100 μg/ml streptomycin (Sigma Chemical Co. St Louis, Mo.). The cell concentration was adjusted to 1×10^6 cells/ml. The viability as determined by trypan blue dye exclusion was uniformly ≧98%. The cell suspension (100 μl) was added to the wells of a 96-well culture plate. Following cell plating, 79 μl of the culture medium and 1 μl of eight different concentrations of the test samples (final concentration 0.03, 0.1, 0.3, 1, 3, 10, 30, 100 μg/ml) dissolved in DMSO (dimethylsulfoxide, Sigma, Mo., USA) were added to the cells. The final concentration of DMSO was adjusted to 0.5%. The vehicle (0.5% DMSO) was used as control. Rolipram (100, 300 μM) was used as a standard. The plates were incubated for 30 min at 37° C. in an atmosphere of 5% CO2. Finally, 20 μl (10 μg/ml) per well of LPS, (Escherchia coli 0127:B8, Sigma Chemical Co., St. Louis, Mo.) was added, for a final concentration of 1 μg/ml. […] The % inhibition was recorded. Percent cytotoxicity of the test samples compared to control was evaluated.
The effect of the plant extract on the proinflammatory cytokines: TNF-α, interleukin-1β (IL-1β), interleukin-6 (IL-6) and interleukin-8 (IL-8) was measured using the supernatants generated in the primary screening assay. […]
The effect of the Compound 1, on the proinflammatory cytokines: TNF-α interleukin-1β (IL-1β), interleukin-6 (IL-6) and interleukin-8 (IL-8) was measured using the supernatants generated in the primary screening assay. […]

[4] = system: hPBMCs; test: Cellular viability test (MTS) in hPBMCs; type: cell-based, human; conditions: hPBMC
Experimental: as §1, with “standard.” for “standard. The plates were incubated for 30 min at 37° C. in an atmosphere of 5% CO2. Finally, 20 μl (10 μg/ml) per well of LPS, (Escherchia coli 0127:B8, Sigma Chemical Co., St. Louis, Mo.) was added, for a final concentration of 1 μg/ml.”

[5] = system: DSS-induced colitis; test: DSS-induced murine model of acute colitis; type: in vivo, C57BL/6J mice; conditions: 15 mg/kg injected from day 5 onwards till death

With `Cc1ccc(S(=O)(=O)/C=C/C#N)cc1` [BAY 11-7082, (E)-3-(4-methylphenylsulfonyl)-2-propenenitrile, reference compound] the “Fluorescence Intensity” value ([1]; 0.5 μM) was 18442, the Fold of control ([1]; 0.5 μM) was 10 and the “Fluorescence Intensity” value ([1]; 1 μM) was 14271. The Fold of control ([1]; 1 μM) was 8.
`CC(C)OC(=O)C(C)(C)Oc1ccc(C(=O)c2ccc(Cl)cc2)cc1` [Fenofibrate] was tested, and the “Plasma triglycerides level, Mean” value ([2]; day 58, oral, vehicle mean 2321.3) was 449.2, the “Plasma triglycerides level, % Change” value ([2]; day 58, versus vehicle) was −81% and the “Atherosclerosis progression (percentage lesion per area, en face aorta), Mean” value ([2]; day 59, vehicle mean 0.5025) was 0.0834. For the same compound, the “Atherosclerosis progression, % Change” value ([2]; versus vehicle) was −84%.
In the case of `COc1ccc(C2CNC(=O)C2)cc1OC1CCCC1` (stereo not shown) [Rolipram], the inhibition at 100 µM ([3]; 100 μM) is reported as 84%, the inhibition at 300 µM ([3]; 300 μM) is reported as 90% and the “% Toxicity at 5 h” value ([4]; 100 μM) is reported as 2%. For the same compound, the “% Toxicity at 5 h” value ([4]; 300 μM) was 21%.
For “infliximab: Monoclonal antibody drug (Centocor), injected 15 mg/kg in the DSS colitis model”, the “Survival against DSS-induced colitic death” value [5] was “all animals in this group were dead”.
